Assay results as given in ChEMBL document CHEMBL3046364, “Influence of 1, 3, 5-Triazine Compounds on Ammonia Oxidizing Activity of Cell-Free Extracts from Nitrosomonas europaea” (J Pestic Sci, 2002).

System: Nitrosomonas europaea
Test: Inhibition of ammonia oxidation in cell suspensions of Nitrosomonas europaea ATCC 25978 assessed as oxygen consumption
Format: functional, organism-based
Details: read-out: pI50 (converted)

SMILES | IC50
CNc1nc(C)nc(C(Cl)(Cl)Cl)n1 | 3.55 µM
CCCCCCCCCCCCCCNc1nc(C)nc(C(Cl)(Cl)Cl)n1 | 21.9 µM
Cc1nc(N)nc(C(Cl)(Cl)Cl)n1 | 4.9 µM
Nc1nc(C(Cl)(Cl)Cl)nc(C(Br)(Br)Br)n1 | 0.0759 µM
CCNc1nc(C)nc(C(Cl)(Cl)Cl)n1 | 2 µM
